According to patent publication US20240197666A1, “DITERPENOID COMPOUNDS THAT ACT ON PROTEIN KINASE C (PKC)” (K-Gen Therapeutics, Inc., priority 2021, published 2024):
Where two headings read alike, the source gives them in different places.

Columns and labels:
Panc2.13 (Pancreatic) = test: Proliferation of Panc2.13; format: cell-based; settings: for IC50: read-out: IC50 Panc2.13 (Pancreatic)
Procedure: (§1) The diterpenoid compounds were tested in A549, a non-small cell lung cancer cell line harboring a K-Ras activating mutation. Briefly, A549 cells at a density of 1,000 cells/well were seeded in 96-well plates and incubated at 37° C. for 24 hours. A series of different concentrations of compound stocks (500×) were prepared by 3-fold serial dilution in DMSO. These compounds were further diluted in culture media and then added to cells so that the final DMSO concentration was not exceeding 0.25%. After 96 hours of incubation, 50 μL of CellTiter Glo reagent (Promega) was added to each well and luminescence was measured after 10 minutes using EnVision (PerkinElmer). Luminescence from cells treated with DMSO alone was set as Max and % of inhibition was calculated as follows: Inhibition %=(Max-Sample value)/Max×100. Data was analyzed using XL-fit software (ID Business Solutions Ltd.) and IC50, relative IC50, and % of top inhibition was calculated. Some of the compounds in this disclosure were very potent in blocking proliferation of A549 lung cancer cells at low nM range. In addition, potency of inhibiting A549 proliferation correlated well with its binding affinity to PKCs for this series of compounds. In other words, higher affinity binders had stronger inhibitory effects on A549 proliferation. This further support the notion that activation, rather than inhibition, of certain PKC isoforms is required to block proliferation of cancer cells, some of which may harbor K-Ras mutations. This is in sharp contrast to previous literature and common belief that inhibition of PKC is necessary to block cancer cell growth (Kang, 2014, New Journal of Science, 2014:1-36). Data presented here is in agreement with recent findings that many loss-of-function but not gain-of-function mutations of PKC isoforms have been identified in many human cancers (Antal et al., 2015, Cell, 160:489-502).
(§2) The compounds in this disclosure were tested for their potency in blocking proliferation of a few other cancer cells lines, including K-Ras mutant pancreatic cell lines Panc2.13 and KP-4, leukemia cell line HL-60, and lymphoma cell lines Namalwa and Mino. Similar procedures as in Example 67 were followed. Initial cell numbers seeded in 96-well plates were different for different cell lines: 3000 cells/well for Panc2.13; 800-1000 cells/well for KP-4; 5000 cells/well for HL-60; 5000-10000 cells/well for Namalwa and Mino. A ratio of (IC50 of K101)/(IC50 of compound) (data in parenthesis in Table 5) was used to normalize the compound potency from different assay batches to a common comparator K101.

HL-60 (Leukemia) = test: Proliferation of HL-60; format: cell-based
[1] = system: NFκB-driven transcription in HeLa-NFκB luciferase reporter cell line; test: NFκB luciferase reporter assay
A549 cell line = test: Proliferation of A549 (CellTiter Glo); format: cell-based; settings: read-out: IC50 μM (A549 Cell Line)
Procedure, shortened: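 A549 cells (K-Ras-mutant NSCLC) were seeded at 1,000 cells/well, allowed 24 h to settle, then exposed for 96 h to 3-fold serially diluted compound (final DMSO ≤0.25%). CellTiter Glo luminescence was read, and inhibition was calculated relative to DMSO-only wells. IC50, relative IC50 and % top inhibition came from curve fitting.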

C1b domain of human PKCα = molecular target: T1, C1b domain of human PKCα (Homo sapiens, UniProt P17252); test: biochemical; format: binding; settings: 3H-PDBu competition
T1 construct: Genes encoding C1b domains of human PKCα, δ, ε, θ, and PKD1 (PKCμ) were synthesized; made in house; host or cells: E. coli BL21(DE3)

Namalwa (Lymphoma) = test: Proliferation of Namalwa; format: cell-based; settings: for IC50: read-out: IC50 Namalwa (Lymphoma)
Procedure, shortened: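 Luminescent ATP read-out (CellTiter Glo) after 96 h compound exposure gave % inhibition relative to DMSO-treated cells, from which IC50 was fitted. Seeding densities were line-specific, from 800 to 10000 cells/well. Potency across batches was normalised to reference compound K101.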

[2] = system: phosphorylation of PKCμ, PKCδ and Erk1/2 in A549 lung cancer cells; test: Western blot of activation of PKC and downstream target protein in A549 cells; format: cell-based; settings: 30 minutes
Procedure: According to the methods described in patent (WO/2017/083783) A549 lung cancer cells (˜3 million cells) were seeded in 10 cm tissue culture dishes (or ˜1 million cells in 6 cm dish) and grown overnight. Cells were then treated with different drugs at indicated concentrations for 30 minutes. Cell lysate preparation, protein quantitation, SDS-PAGE, and Western blotting procedures are described (WO/2017/083783). β-actin or Vinculin was used as loading controls. Imagequant LAS4000 (GE) was used to scan membranes if secondary antibodies anti-mouse IgG HRP conjugate or anti-rabbit IgG HRP conjugate (dilutions from 1:2000-1:10000) were used. For ProteinSimple Wes system, manufacture's procedure was followed (ProteinSimple 12-230 kDa Wes Separation Module) for sample preparation, loading, running, and data analysis.
Phosphorylation of these sites has been linked to acute activation or catalytic activity of the PKC isoforms and Erk1/2. High level of phosphorylation indicates strong activation.
A subset of the diterpenoid compounds with good binding affinity to novel PKC isoforms and PKCμ was tested at two different concentrations in A549 cells to assess activation of PKCμ, PKCδ, and Erk1/2 by Western blot analysis. In addition to the phospho-specific antibodies described above, an additional phospho-specific antibody P-PKCδ (S299) (Abcam cat #133456) was also used. This antibody has been shown in the literature (Durgan et al., FEBS Lett. 2007, 581(18):3377-81, Novel phosphorylation site markers of protein kinase C delta activation) to be able to detect activation of PKCδ. K-101 (prostratin, 1 μM) was included as reference compounds.

KP-4 (Pancreatic) = test: Proliferation of KP-4; format: cell-based; settings: read-out: IC50 KP-4 (Pancreatic)
Procedure: as §1, §2

C1b domain of human PKCθ = molecular target: T2, C1b domain of human PKCθ (Homo sapiens, UniProt Q04759); test: biochemical; format: binding; settings: 3H-PDBu competition
T2 construct: Genes encoding C1b domains of human PKCα, δ, ε, θ, and PKD1 (PKCμ) were synthesized; made in house; host or cells: E. coli BL21(DE3)
T2 sequence (Q04759 231-281 limits assumed): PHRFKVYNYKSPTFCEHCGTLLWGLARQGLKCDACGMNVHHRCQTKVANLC
Procedure, shortened: (§3)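 Affinity was measured by competition with the radiotracer 3H-PDBu for recombinant human GST-C1b fusion proteins expressed in E. coli BL21(DE3). Incubation ran 10 minutes at 37° C with shaking, then 20 minutes on ice, and filter-trapped 3H-PDBu was counted by scintillation. IC50 values were converted to Ki by Cheng-Prusoff using the experimentally determined Kd for each protein preparation.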

C1b domain of human PKCδ = molecular target: T3, C1b domain of human PKCδ (Homo sapiens, UniProt Q05655); test: biochemical; format: binding; settings: 3H-PDBu competition
T3 construct: Genes encoding C1b domains of human PKCα, δ, ε, θ, and PKD1 (PKCμ) were synthesized; made in house; host or cells: E. coli BL21(DE3)
Procedure, shortened: as §3

C1b domain of human PKCε = molecular target: T4, C1b domain of human PKCε (Homo sapiens, UniProt Q02156); test: biochemical; format: binding; settings: 3H-PDBu competition
T4 construct: Genes encoding C1b domains of human PKCα, δ, ε, θ, and PKD1 (PKCμ) were synthesized; made in house; host or cells: E. coli BL21(DE3)
Procedure, shortened: as §3

Mino (Lymphoma) = test: Proliferation of Mino; format: cell-based; settings: for IC50: read-out: IC50 Mino (Lymphoma)
Procedure, shortened: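 Cells seeded per line (KP-4 800-1000, Panc2.13 3000, Namalwa and Mino 5000-10000 cells/well), 24 h at 37° C, then 96 h with 3-fold serial dilutions of compound, final DMSO ≤0.25%. CellTiter Glo luminescence read; % inhibition vs DMSO-only max, IC50 fitted. Potency also normalized as ratio to comparator K101 across batches.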

[3] = molecular target: T5, C1b domain of human PKD1 (PKCμ) (Homo sapiens, UniProt Q15139); test: Competitive 3H-PDBu binding assay, C1b domain of PKD1 (PKCμ); settings: 3H-PDBu competition
T5 construct: Genes encoding C1b domains of human PKCα, δ, ε, θ, and PKD1 (PKCμ) were synthesized; made in house; host or cells: E. coli BL21(DE3)
T5 sequence (Q15139 270-320 limits assumed): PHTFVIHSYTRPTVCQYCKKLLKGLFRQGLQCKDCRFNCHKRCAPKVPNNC
Procedure: Compounds described in this disclosure were tested for binding affinity to C1b domain of PKC isoforms. Compound binding affinity to C1b domain of PKC isoforms was derived from competitive binding assay using radioactive tracer ^3H-PDBu and recombinant GST-C1b or full-length of human PKC proteins based on modified procedures from Methods in Molecular Biology, vol.
Genes encoding C1b domains of human PKCα, δ, ε, θ, and PKD1 (PKCμ) were synthesized and inserted into pGEX-2TK or pGEX-4T1 vectors for expression and production of GST-C1b proteins in E. coli BL21(DE3) via IPTG induction. The target proteins were purified by glutathione sepharose 4B and followed by ion exchange chromatography if needed to achieve purity >70%. Aliquots of the purified proteins were stored at −80 degree for binding assay (storage buffer: 20 mM Tris pH 8.0, 200 mM NaCl, 10% glycerol, 1 mM DTT).
The plate was incubated at 37° C. on a shaker at 300 rpm for 10 minutes and then put on ice for 20 minutes. […] The bottom of the filter plate was sealed and 50 μL of MicroScint-20 (PerkinElmer) cocktail was added to each well. ^3H-PDBu trapped in each well was counted using PerkinElmer MicroBeta2 Reader. Data were analyzed using GraphPad Prism5 with the model “log(inhibitor) vs. response-variable slope” to fit the IC50, and then IC50 was transformed to Ki using Cheng-Prusoff equation: Ki=IC50/(1+added radio ligand/Kd). Kd is the binding affinity of each protein preparation to ^3H-PDBu, determined experimentally.

[4] = Homo sapiens, HeLa, 16 h, read-out: NFκB-luc HeLa cells EC50 (μM)
[5] = Homo sapiens, A549, 96 hours, CellTiter Glo

T4 sequence (Q02156 242-292 limits assumed): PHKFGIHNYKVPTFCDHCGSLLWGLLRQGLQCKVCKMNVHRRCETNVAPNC
T3 sequence (Q05655 230-280 limits assumed): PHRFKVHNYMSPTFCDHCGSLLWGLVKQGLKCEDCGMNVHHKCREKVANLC

Row | Compound | ratio (IC50 of K101)/(IC50 of compound) Panc2.13 (Panc2.13 (Pancreatic)) | IC50 (Panc2.13 (Pancreatic)) [nM] | ratio (IC50 of K101)/(IC50 of compound) HL-60 (HL-60 (Leukemia)) | Ki (C1b domain of human PKCα) [nM] | ratio (IC50 of K101)/(IC50 of compound) Namalwa (Namalwa (Lymphoma)) | IC50 (Namalwa (Lymphoma)) [nM] | IC50 (KP-4 (Pancreatic)) [nM] | Ki (C1b domain of human PKCθ) [nM] | Ki (C1b domain of human PKCδ) [nM] | Ki (C1b domain of human PKCε) [nM] | ratio (IC50 of K101)/(IC50 of compound) Mino (Mino (Lymphoma)) | Ki [3] [nM] | EC50 [1, 4] [µM] | IC50 (A549 cell line; Homo sapiens, A549, 96 h) [µM] | IC50 (Mino (Lymphoma); Homo sapiens, MINO) [nM] | IC50 (A549 cell line; [5]) [µM] | other results
1 | CC1=C[C@H]2[C@@]3(O)[C@H](C)C[C@]4(OC(=O)[C@@H](N)Cc5ccccc5)[C@H]([C@@H]3C=C(CO)C[C@]2(O)C1=O)C4(C)C | 0.75 | 1000 to 2000 | 0.9 | 400 to 800 | 0.19 | 200 to 600 | 600 to 1000 | 30 to 60 | 30 to 60 | 100 to 200 | 0.57 | 10 to 30 |  |  |  |  | IC50 (HL-60 (Leukemia); read-out: IC50 HL-60 (Leukemia)): 200 to 600 nM; EC50 ([1]; read-out: NFκB-luc HeLa cells EC50, 16h): 0.2 to 0.6 µM; IC50 (A549 cell line; 96 hours, CellTiter Glo): 0.6 to 1 µM; phosphorylation of PKCμ, PKCδ and Erk1/2 ([2]; 3 μM): induced phosphorylation; IC50 (Mino (Lymphoma)): 100 to 200 nM
2 | CC1=C[C@H]2[C@@]3(O)[C@H](C)C[C@]4(OC(=O)CCc5ncc(-c6ccc(Cl)cc6)o5)[C@H]([C@@H]3C=C(CO)C[C@]2(O)C1=O)C4(C)C |  |  | 5.71 | 60 to 100 | 1.15 | 30 to 60 |  |  |  |  | 5.36 |  | 0.1 to 0.2 | 0.03 to 0.06 | 10 to 30 |  | IC50 (HL-60 (Leukemia); Homo sapiens, HL-60, 96 h, read-out: IC50 HL-60 (Leukemia)): 100 to 600 nM; phosphorylation of PKCμ, PKCδ and Erk1/2 ([2]; 0.3 μM): induced high levels of phosphorylation
3 | CC1=C[C@H]2[C@@]3(O)[C@H](C)C[C@]4(OC(=O)[C@@H](N)C/C=C/c5ccccc5)[C@H]([C@@H]3C=C(CO)C[C@]2(O)C1=O)C4(C)C |  |  |  | 100 to 200 |  |  |  |  | 5 to 10 |  |  | < 5 |  |  |  | 0.06 to 0.1 | 
4 | CC/C=C\C/C=C\C/C=C\C/C=C\C/C=C\C/C=C\CCC(=O)O[C@@]12C[C@@H](C)[C@@]3(O)[C@@H](C=C(CO)C[C@]4(O)C(=O)C(C)=C[C@@H]34)[C@@H]1C2(C)C | 157 | 1 to 10 | 80 | 60 to 100 | 20.9 | 1 to 10 | 1 to 10 |  |  | 10 to 30 | 82.5 |  | 0.001 to 0.01 | 0.001 to 0.01 | < 1 |  | IC50 (HL-60 (Leukemia); Homo sapiens, HL-60, read-out: IC50 HL-60 (Leukemia)): 1 to 10 nM
5 | CC1=C[C@H]2[C@@]3(O)[C@H](C)C[C@]4(OC(=O)[C@@H](N)CCc5ccc(C(F)(F)F)cc5)[C@H]([C@@H]3C=C(CO)C[C@]2(O)C1=O)C4(C)C |  |  |  | 200 to 400 |  |  |  |  | 10 to 30 |  |  | < 5 |  |  |  | 0.1 to 0.2 | 
6 | CC1=C[C@H]2[C@@]3(O)[C@H](C)C[C@]4(OC(=O)[C@@H](N)CCCCCCc5ccc(C(F)(F)F)cc5)[C@H]([C@@H]3C=C(CO)C[C@]2(O)C1=O)C4(C)C |  |  |  | 60 to 100 |  |  |  | 10 to 30 |  | 10 to 30 |  |  |  | 0.01 to 0.03 |  |  | 
